# Results published in patent US8604034B2, “Substituted imidazo[1,2-α]pyrrolo[1,2-d]pyrazines for treating respiratory syncytial virus (RSV) infections” (Biota Scientific Management Pty Ltd., priority 2010, dated 2013).
# Where two headings read alike, the source gives them in different places.
# System: RSV A2
# Experiment: RSV antiviral cytopathic effect (CPE) assay
# Type: cell-based
# Settings: human respiratory syncytial virus, HEp-2, 120 h, HEp2 cells infected with RSV A2 (moi ~0.01), 5 days, MTT readout
# Summary of the method: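 HEp2 cells infected with RSV A2 (moi ~0.01) and incubated with serially diluted compound for 5 days at 37 °C. CPE read by MTT metabolism (absorbance 540/650 nm); uninfected cells gave cytotoxicity. EC50 and CC50 obtained by non-linear regression.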
# [1] = read-out: Activity Range (RSV A2 EC50)
# [2] = mean EC50, read-out: RSV A2 EC50
SMILES,EC50 [1] [nM],EC50 [2] [nM]
"Cc1nocc1C(=O)N1CCN2C(=O)c3cccn3CC12c1ccc(C(F)(F)F)cn1 (stereo not shown) [Compound 116, 1-[(3-methyl-1,2-oxazol-4-yl)carbonyl]-10a-[5-(trifluoromethyl)pyridin-2-yl]-2,3,10,10a-tetrahydro-1H,5H-imidazo[1,2-a]pyrrolo[1,2-d]pyrazin-5-one]",50 to 99,59
Cc1nocc1C(=O)N1CCN2C(=O)c3cc(CN4CCOCC4)cn3CC12c1ccc(Cl)cc1 (stereo not shown) [Compound 26],> 10000,
"Cc1nocc1C(=O)N1CCN2C(=O)c3cccn3CC12c1ccncc1 (stereo not shown) [Compound 122, 1-[(3-methyl-1,2-oxazol-4-yl)carbonyl]-10a-(pyridin-4-yl)-2,3,10,10a-tetrahydro-1H,5H-imidazo[1,2-a]pyrrolo[1,2-d]pyrazin-5-one]",100 to 499,430
COc1ccc(C23Cn4cccc4C(=O)N2CCN3C(=O)c2cnoc2)cc1 (stereo not shown) [Compound 51],500 to 10000,700
